The source of these data is publication PMC8512764, “New 4-Aminoproline-Based Small Molecule Cyclopeptidomimetics as Potential Modulators of α4β1 Integrin” (Molecules, 2021).

The nature of data set [1]: head-to-tail lactamisation (amide bond) of side-chain-protected linear peptides; HATU (3 equiv)/HOAt (3 equiv)/2,4,6-collidine (3 equiv); linear peptide + collidine added dropwise to HATU/HOAt, 5 h, argon. Particulars: the molecule shown is the open-chain precursor, DCM/DMF 15:1, 25.0 °C.
Another data set has as its target α4β1 receptor. The arrangement: method as in PMID 16767086. The settings on record: Jurkat cell assay; read-out: IC50, affinity toward α4β1 receptor; cited from earlier work.
Another data set relates to α4β1–positive cells. The arrangement: method as in PMID 16767086. Particulars: cited from earlier work.
Another data set relates to human α4β1 integrin. Further details: method as in PMID 30051467. The settings on record: cited from earlier work.
Another data set relates to α4 integrin. Further details: method as in PMID 30051467. The settings on record: cited from earlier work.
A further data set relates to allergic conjunctivitis. Further details: method as in PMID 30051467. The settings on record: cited from earlier work.
The target of data set [2] is T1, α4β1 integrin (Homo sapiens, UniProt P05556+P13612).
T1 construct: Jurkat cells endogenously express α4β1 integrin; host or cells: Jurkat E6.1 cells
T1 sequence (P13612 34-1032): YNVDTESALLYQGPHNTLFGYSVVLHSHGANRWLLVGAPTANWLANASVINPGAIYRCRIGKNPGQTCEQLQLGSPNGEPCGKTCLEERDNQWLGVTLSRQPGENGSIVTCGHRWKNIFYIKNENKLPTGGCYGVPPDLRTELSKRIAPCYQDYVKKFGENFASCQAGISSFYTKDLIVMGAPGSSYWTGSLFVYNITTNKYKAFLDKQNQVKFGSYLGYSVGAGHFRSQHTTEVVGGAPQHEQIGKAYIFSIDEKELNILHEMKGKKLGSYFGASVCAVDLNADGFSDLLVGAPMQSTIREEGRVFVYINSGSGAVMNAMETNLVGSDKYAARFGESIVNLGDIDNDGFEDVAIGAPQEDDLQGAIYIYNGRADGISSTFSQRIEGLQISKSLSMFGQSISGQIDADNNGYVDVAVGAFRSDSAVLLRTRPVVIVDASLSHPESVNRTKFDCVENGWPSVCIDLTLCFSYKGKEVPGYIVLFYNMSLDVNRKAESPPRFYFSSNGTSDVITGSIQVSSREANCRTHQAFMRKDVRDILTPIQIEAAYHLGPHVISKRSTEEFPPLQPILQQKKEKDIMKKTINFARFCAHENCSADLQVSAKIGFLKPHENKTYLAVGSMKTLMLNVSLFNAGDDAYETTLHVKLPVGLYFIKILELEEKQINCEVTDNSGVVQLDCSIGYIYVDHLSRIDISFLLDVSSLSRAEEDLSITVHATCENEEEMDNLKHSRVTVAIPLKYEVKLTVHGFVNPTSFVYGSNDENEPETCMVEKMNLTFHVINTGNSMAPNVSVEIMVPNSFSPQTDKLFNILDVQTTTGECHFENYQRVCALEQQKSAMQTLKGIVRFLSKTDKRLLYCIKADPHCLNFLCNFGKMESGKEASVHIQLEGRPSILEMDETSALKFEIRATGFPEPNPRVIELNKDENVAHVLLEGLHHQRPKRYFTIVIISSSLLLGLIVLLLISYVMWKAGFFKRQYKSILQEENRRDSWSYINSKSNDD
T1 sequence (P05556 21-798): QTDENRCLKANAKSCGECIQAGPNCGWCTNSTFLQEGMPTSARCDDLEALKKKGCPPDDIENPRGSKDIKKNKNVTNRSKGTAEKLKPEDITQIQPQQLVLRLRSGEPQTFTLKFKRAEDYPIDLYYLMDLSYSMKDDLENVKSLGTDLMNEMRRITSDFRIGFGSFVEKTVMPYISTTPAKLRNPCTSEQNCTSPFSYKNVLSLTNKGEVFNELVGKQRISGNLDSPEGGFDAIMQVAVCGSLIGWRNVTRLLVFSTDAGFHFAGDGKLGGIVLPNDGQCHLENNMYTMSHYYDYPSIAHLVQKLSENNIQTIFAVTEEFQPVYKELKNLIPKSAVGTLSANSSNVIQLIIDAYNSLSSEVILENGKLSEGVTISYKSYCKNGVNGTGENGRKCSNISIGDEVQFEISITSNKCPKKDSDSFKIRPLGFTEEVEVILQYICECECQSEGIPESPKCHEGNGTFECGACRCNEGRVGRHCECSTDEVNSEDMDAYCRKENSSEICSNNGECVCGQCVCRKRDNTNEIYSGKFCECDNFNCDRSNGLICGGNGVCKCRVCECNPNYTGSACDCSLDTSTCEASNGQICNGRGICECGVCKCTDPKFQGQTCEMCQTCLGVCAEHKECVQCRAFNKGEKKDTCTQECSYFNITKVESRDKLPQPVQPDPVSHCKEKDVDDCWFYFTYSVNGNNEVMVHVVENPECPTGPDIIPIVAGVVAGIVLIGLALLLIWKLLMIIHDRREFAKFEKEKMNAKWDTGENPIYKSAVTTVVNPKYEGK
The settings on record: cited from earlier work.

Details of data set [3]: method as in PMID 31338363, PMID 26101577. The settings on record: cited from earlier work.
The test system of another data set is Jurkat cells. The data set is described as follows: Jurkat cell adhesion to wells coated with compound 16 (absence of VCAM-1). The data set is classed as cell-based. Here is the method: In a second set of experiments, the ability of compound 16 to increase cell adhesion was tested in the absence of VCAM-1. Wells were coated by passive adsorption with compound 16 or BSA (both at 10 µg/mL) as a negative control and Jurkat cell adhesion was measured (Figure 8b).
(§1) The number of adherent cells was determined as described above.

In a further data set the test system is α4β1/VCAM-1 interaction. The arrangement: method as in PMID 10072689. Particulars: Jurkat cell adhesion assay; read-out: IC50, inhibition of α4β1/VCAM-1 interaction; cited from earlier work.
The next data set deals with α4β7 integrin. The arrangement: method as in PMID 10072689. The settings on record: cited from earlier work.
Data set [4] deals with allergic bronchoconstriction. The arrangement: method as in PMID 10072689. Particulars: administered as an aerosol; cited from earlier work.
The target in data set [5] is T1, α4β1 integrin. Kind of data set: Jurkat cell adhesion assay on VCAM-1-coated wells. It counts as cell-based. Here is the method: To investigate the ability of the newly synthesized cyclopeptidomimetics 12–18 to recognize and bind α4β1 integrin, cell adhesion assays were performed on VCAM-1. The compounds were evaluated for their ability to interfere with α4β1 integrin-mediated cell adhesion by using Jurkat cells, which are known to constitutively express this integrin [46, 48, 49, 50, 51].
Jurkat E6.1 cells were purchased from American Type Culture Collection (ATCC, Rockville, MD, USA) and were routinely cultured in RPMI-1640 (LifeTechnologies, Milan, Italy) supplemented with 10% FBS (fetal bovine serum, Life Technologies) and 2 mM glutamine. Cells were kept at 37 °C under 5% CO2 humidified atmosphere. Jurkat cells are a widely used cell model to study potential agonist or antagonist ligands able to modulate integrin-mediated cell adhesion. Jurkat cells endogenously express α4β1 integrin [13].
The assays were performed as previously described. In brief, black 96 well plates were coated with VCAM-1 (2 μg/mL) overnight at 4 °C; then, non-specific hydrophobic binding sites were blocked with 1% BSA (bovine serum albumin, Sigma-Aldrich) in HBSS (Life Technologies) for 30 min at 37 °C. Jurkat cells were labelled with CellTracker green CMFDA (12.5 μM, Life Technolgies) and pre-incubated with various concentration (10^−4–10^−10 M) of each new cyclopeptidomimetic or with the vehicle (DMSO) for 30 min at 37 °C. Afterwards, Jurkat cells were plated on VCAM-1-coated wells and incubated for 30 min at 37 °C. Then, wells were washed three times with 1% BSA in HBSS and Jurkat cells were lysed with 0.5% Triton X-100 in PBS for 30 min at 4 °C. Green fluorescence (Ex485 nm/Em 535 nm) was measured in an EnSpire Multimode Plate Reader (PerkinElmer, Waltham, MA, USA). Experiments were performed in quadruplicate and repeated at least three times. The number of adherent cells was determined by comparison with a standard curve made with a known concentration of labelled Jurkat cells. Data analysis and IC50/EC50 values were calculated using GraphPad Prism 6.0 (GraphPad Software, San Diego, CA, USA).
as §1

For data set [6] the following is noted: amide bond, HATU/HOAt/collidine, DCM/DMF 15:1, 25.0 °C.
The test system of data set [7] is endothelial progenitor cells. The arrangement: method as in PMID 23703610. Particulars: α4β1-dependent; cited from earlier work.

“Also recorded” adds a separate entry of the source. Where two headings read alike, the source gives them in different places. *1 amine or outer side, *2 acyl side, *3 side chain or, on linkers, in order; H or OH if unused. Where a SMILES comes first, the peptide text is derived from it. Bridges are numbered along the chain shown (N, C = ends). [ ]: non-standard residue; d: D form. The star is where a group is joined. ξ: configuration not given here. ξPro(4ξ-NH2) = O=C(C1CC(N[*:3])CN1[*:1])[*:2]; X1 = O=C(Cc1ccc(N[*:1])cc1)[*:2]; NH(2-Me-phenyl) = Cc1ccccc1N*; CO = O=C([*:1])[*:2]

On to `Cc1ccccc1NC(=O)Nc1ccc(CC(=O)N2C[C@@H](NC(=O)CNC(=O)[C@@H](N)C(C)C)C[C@H]2C(=O)N[C@@H](CC(C)C)C(=O)N[C@@H](CC(=O)OC(C)(C)C)C(=O)O)cc1` [H-Val-Gly-Amp(MPUPA)-Leu-Asp(tBu)-OH], for which, in [1] (17-membered ring), the ring closure, isolated yield is 88%.

Consider `Cc1ccccc1NC(=O)Nc1ccc(CC(=O)N[C@@H](CCCCNC(=O)/C=C/c2cccnc2)C(=O)N[C@@H](CCCC(=O)O)C(=O)NC2(C(N)=O)CCCCC2)cc1` [LLP2A], for which, on α4β1 receptor, the IC50 is 0.002 nM. In addition, in the data set on α4β1–positive cells, the “Effect on cell proliferation and survival of α4β1–positive cells” value is listed as “without any effect”.

Take `Cc1ccccc1NC(=O)Nc1ccc(CC(=O)N2CC[C@H](C(=O)NCC(=O)O)C2)cc1` [DS-70]: the “Binding affinity for human α4β1 integrin” value with human α4β1 integrin is “high binding affinity”. The “Antagonist activity of α4–mediated cell adhesion” value in the data set on α4 integrin was “potent antagonist activity”. The “Outcome in guinea pig model of allergic conjunctivitis” value in the data set with allergic conjunctivitis is given as “successfully tested”. With `Cc1ccccc1NC(=O)Nc1ccc(CNC(=O)C2=CCN(C(=O)CC(=O)O)[C@H]2C(C)C)cc1` [Compound 11b], the “Inhibitory potency towards α4β1 integrin” value on α4β1 integrin [2] is on record as “considerably less active”. Turning to `Cc1ccccc1NC(=O)Nc1ccc(CC(=O)N2C[C@@H](NC(=O)[C@@H](N)CC(C)C)C[C@H]2C(=O)N[C@H](C(=O)N[C@@H](CC(=O)OC(C)(C)C)C(=O)O)C(C)C)cc1` [H-Leu-Amp(MPUPA)-Val-Asp(tBu)-OH], the ring closure, isolated yield in [1] (14-membered ring) was found to be 73%. With `Cc1ccccc1NC(=O)Nc1ccc(CC(=O)N2C[C@@H](NC(=O)[C@@H](N)C(C)C)C[C@H]2C(=O)N[C@@H](CC(C)C)C(=O)N[C@@H](CCC(=O)OC(C)(C)C)C(=O)O)cc1` [H-Val-Amp(MPUPA)-Leu-Glu(tBu)-OH], in data set [1] (14-membered ring), the ring closure, isolated yield worked out at 65%.

With `Cc1ccccc1NC(=O)Nc1ccc(CNC(=O)C2=CCN(C(=O)CC(=O)O)[C@@H]2C(C)C)cc1` [Compound 11a], on α4β1 integrin [2], the “IC50, inhibition of α4β1/VCAM interaction” value is “in the nanomolar range”. The Enzymatic stability entry in data set [3] is “superior enzymatic stability respect to cyclic peptides 8–10”. `Cc1ccccc1NC(=O)Nc1ccc(CC(=O)N2C[C@@H](NC(=O)CNC(=O)[C@@H](N)C(C)C)C[C@H]2C(=O)N[C@@H](CC(C)C)C(=O)N[C@@H](CCC(=O)OC(C)(C)C)C(=O)O)cc1` [H-Val-Gly-Amp(MPUPA)-Leu-Glu(tBu)-OH]: the ring closure, isolated yield in data set [1] (17-membered ring) was found to be 78%. Turning to `Cc1ccccc1NC(=O)Nc1ccc(CC(=O)N[C@@H](CC(C)C)C(=O)N[C@@H](CC(=O)O)C(=O)N[C@H](C(=O)N2CCC[C@H]2C(=O)O)C(C)C)cc1` [BIO1211, MPUPA-Leu-Asp-Val-Pro] ({NH(2-Me-phenyl)-CO}-[X1]LDVP-OH), the “Effect of BIO1211 on cell adhesion induced by coated compound 16” value in the data set on Jurkat cells (BIO1211 10 nM–100 mM, wells coated with compound 16 10 μg/mL) is listed as “not able to reduce the increment of cell adhesion induced by compound 16”. The IC50 was 4 nM in the data set on α4β1/VCAM-1 interaction and 2000 nM in the data set on α4β7 integrin. In addition, in data set [4], the “Efficacy in sheep model of allergic bronchoconstriction” value is given as “prophylactic efficacy”. Further, the Enzymatic stability result in data set [3] is listed as “a certain enzymatic instability”. Consider `Cc1ccccc1NC(=O)Nc1ccc(CC(=O)N2C[C@@H](NC(=O)[C@@H](N)C(C)C)C[C@H]2C(=O)N[C@@H](CC(C)C)C(=O)N[C@@H](CC(=O)OC(C)(C)C)C(=O)O)cc1` [H-Val-Amp(MPUPA)-Leu-Asp(tBu)-OH], for which the ring closure, isolated yield in [1] (14-membered ring) amounted to 69%. Turning to `Cc1ccccc1NC(=O)Nc1ccc(CC(=O)N2CC3CC2C(=O)NC(C(C)C)C(=O)NC(CC(=O)O)C(=O)NC(CC(C)C)C(=O)N3)cc1` (stereo not drawn) [Compound 16, c[(MPUPA)Amp-Val-Asp-Leu]] ({NH(2-Me-phenyl)-CO}-[X1][ξPro(4ξ-NH2)]VDL; lactam 2-C; configuration not given here), the “Behaviour in α4β1 integrin-mediated cell adhesion (agonist/antagonist)” value on α4β1 integrin [5] (Jurkat cell adhesion to VCAM-1 (2 μg/mL)) is “agonist”. Further, the EC50 on α4β1 integrin [5] (Jurkat cell adhesion to VCAM-1 (2 μg/mL), means ± SD, n = 3, read-out: EC50/IC50 (EC50 for compounds enhancing cell adhesion)) was 370 ± 90 nM. Moreover, the “Effect of compound 16 on the reduced cell adhesion induced by BIO1211” value at α4β1 integrin [5] (cells pre-incubated with BIO1211 (1 μM) 30 min, then compound 16 (100 μM)) is recorded as “not able to modify the reduction in adhesion induced by BIO1211; also recorded: not able to modify the reduced cell adhesion induced by BIO1211”. In addition, on α4β1 integrin [5] (compound 16 100 μM), the “Effect on Jurkat cell adhesion to VCAM-1” value is recorded as “increasing the adhesion of Jurkat cells to VCAM-1”. Besides, in the data set on Jurkat cells (wells coated with 10 μg/mL, absence of VCAM-1, vs BSA-coated wells), the “Jurkat cell adhesion to compound-coated wells” value is on record as “able to induce Jurkat cell adhesion; also recorded: significant adhesion of Jurkat cells”. `Cc1ccccc1NC(=O)Nc1ccc(CC(=O)N2C[C@@H](NC(=O)[C@@H](N)CC(C)C)C[C@H]2C(=O)N[C@H](C(=O)N[C@@H](CCC(=O)OC(C)(C)C)C(=O)O)C(C)C)cc1` [H-Leu-Amp(MPUPA)-Val-Glu(tBu)-OH]: in [1] (14-membered ring), the ring closure, isolated yield was 73%. On to `Cc1ccccc1NC(=O)Nc1ccc(CC(=O)N2C[C@@H]3C[C@H]2C(=O)N[C@@H](CC(C)C)C(=O)N[C@@H](CCC(=O)OC(C)(C)C)C(=O)N[C@@H](C(C)C)C(=O)NCC(=O)N3)cc1` [H-Val-Gly-Amp(MPUPA)-Leu-Glu(tBu)-OH], for which, in [6] (from H-Val-Gly-Amp(MPUPA)-Leu-Glu(tBu)-OH, 17-membered ring, 0.48 mM), the ring closure, isolated yield turned out to be 78%. Consider `CCCC[C@@H](COC(=O)N(Cc1cccs1)Cc1cccs1)NC(=O)N[C@@H](CC(=O)OC)c1ccc2c(c1)OCO2` [THI0019], for which, in [7], the “Effect on endothelial progenitor cells in vitro” value is “enhanced the rolling, spreading, adhesion, and migration”. In the case of `Cc1ccccc1NC(=O)Nc1ccc(CC(=O)N2C[C@@H](NC(=O)[C@@H](N)CC(=O)OC(C)(C)C)C[C@H]2C(=O)N[C@@H](CCCNC(=N)NS(=O)(=O)c2c(C)c(C)c3c(c2C)CCC(C)(C)O3)C(=O)NCC(=O)O)cc1` [H-Asp(tBu)-Amp(MPUPA)-Arg(Pmc)-Gly-OH], in [1] (14-membered ring), the ring closure, isolated yield turned out to be 43%. In data set [6] (from H-Asp(tBu)-Amp(MPUPA)-Arg(Pmc)-Gly-OH, 14-membered ring, 0.52 mM), `Cc1ccccc1NC(=O)Nc1ccc(CC(=O)N2C[C@@H]3C[C@H]2C(=O)N[C@@H](CCCNC(=N)NS(=O)(=O)c2c(C)c(C)c4c(c2C)CCC(C)(C)O4)C(=O)NCC(=O)N[C@@H](CC(=O)OC(C)(C)C)C(=O)N3)cc1` [H-Asp(tBu)-Amp(MPUPA)-Arg(Pmc)-Gly-OH] gave a ring closure, isolated yield of 43%.
